How the values were obtained:
Details in all cases: Compound concentration 1000.0 nM
[1] = molecular target: T1, NUAK family SNF1-like kinase 1 (Homo sapiens) (UniProt O60285)
T1 sequence (whole entry): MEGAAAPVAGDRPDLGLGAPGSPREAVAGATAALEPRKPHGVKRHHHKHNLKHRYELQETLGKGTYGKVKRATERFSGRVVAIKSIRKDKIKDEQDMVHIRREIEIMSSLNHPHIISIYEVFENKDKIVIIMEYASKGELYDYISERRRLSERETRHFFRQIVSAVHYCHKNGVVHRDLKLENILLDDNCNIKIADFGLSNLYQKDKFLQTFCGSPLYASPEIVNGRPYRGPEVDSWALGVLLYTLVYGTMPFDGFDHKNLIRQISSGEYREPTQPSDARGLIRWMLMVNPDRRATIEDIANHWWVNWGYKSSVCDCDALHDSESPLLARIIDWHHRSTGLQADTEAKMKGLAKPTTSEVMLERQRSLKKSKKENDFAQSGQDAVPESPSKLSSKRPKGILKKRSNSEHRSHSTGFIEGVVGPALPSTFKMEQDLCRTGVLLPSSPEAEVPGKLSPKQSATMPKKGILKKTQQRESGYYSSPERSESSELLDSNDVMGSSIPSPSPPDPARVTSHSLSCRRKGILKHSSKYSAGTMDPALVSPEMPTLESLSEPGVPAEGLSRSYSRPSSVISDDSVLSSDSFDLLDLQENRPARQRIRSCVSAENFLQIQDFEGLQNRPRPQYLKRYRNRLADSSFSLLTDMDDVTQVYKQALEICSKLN

[2] = molecular target: Eukaryotic translation initiation factor 2-alpha kinase 1 (Homo sapiens) (UniProt Q9BQI3)
Eukaryotic translation initiation factor 2-alpha kinase 1 (Homo sapiens), sequence (Q9BQI3 whole entry): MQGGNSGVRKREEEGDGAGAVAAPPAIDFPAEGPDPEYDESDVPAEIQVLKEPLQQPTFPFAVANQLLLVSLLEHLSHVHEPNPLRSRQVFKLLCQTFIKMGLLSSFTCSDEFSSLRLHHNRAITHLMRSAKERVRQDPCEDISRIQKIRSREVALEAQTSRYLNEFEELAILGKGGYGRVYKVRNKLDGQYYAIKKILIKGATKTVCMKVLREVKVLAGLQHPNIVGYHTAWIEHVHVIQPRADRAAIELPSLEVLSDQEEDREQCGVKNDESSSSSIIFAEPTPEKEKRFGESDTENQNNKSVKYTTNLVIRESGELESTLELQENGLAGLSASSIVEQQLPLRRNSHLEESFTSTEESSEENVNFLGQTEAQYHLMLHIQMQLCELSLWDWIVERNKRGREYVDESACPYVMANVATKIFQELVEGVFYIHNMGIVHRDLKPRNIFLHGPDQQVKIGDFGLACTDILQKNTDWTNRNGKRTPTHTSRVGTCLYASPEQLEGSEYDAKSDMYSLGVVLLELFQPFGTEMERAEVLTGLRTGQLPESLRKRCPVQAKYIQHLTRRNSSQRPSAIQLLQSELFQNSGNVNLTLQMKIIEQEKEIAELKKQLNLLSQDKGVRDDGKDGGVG

[3] = molecular target: T2, MAP/microtubule affinity-regulating kinase 4 (Homo sapiens) (UniProt Q96L34)
T2 sequence (whole entry): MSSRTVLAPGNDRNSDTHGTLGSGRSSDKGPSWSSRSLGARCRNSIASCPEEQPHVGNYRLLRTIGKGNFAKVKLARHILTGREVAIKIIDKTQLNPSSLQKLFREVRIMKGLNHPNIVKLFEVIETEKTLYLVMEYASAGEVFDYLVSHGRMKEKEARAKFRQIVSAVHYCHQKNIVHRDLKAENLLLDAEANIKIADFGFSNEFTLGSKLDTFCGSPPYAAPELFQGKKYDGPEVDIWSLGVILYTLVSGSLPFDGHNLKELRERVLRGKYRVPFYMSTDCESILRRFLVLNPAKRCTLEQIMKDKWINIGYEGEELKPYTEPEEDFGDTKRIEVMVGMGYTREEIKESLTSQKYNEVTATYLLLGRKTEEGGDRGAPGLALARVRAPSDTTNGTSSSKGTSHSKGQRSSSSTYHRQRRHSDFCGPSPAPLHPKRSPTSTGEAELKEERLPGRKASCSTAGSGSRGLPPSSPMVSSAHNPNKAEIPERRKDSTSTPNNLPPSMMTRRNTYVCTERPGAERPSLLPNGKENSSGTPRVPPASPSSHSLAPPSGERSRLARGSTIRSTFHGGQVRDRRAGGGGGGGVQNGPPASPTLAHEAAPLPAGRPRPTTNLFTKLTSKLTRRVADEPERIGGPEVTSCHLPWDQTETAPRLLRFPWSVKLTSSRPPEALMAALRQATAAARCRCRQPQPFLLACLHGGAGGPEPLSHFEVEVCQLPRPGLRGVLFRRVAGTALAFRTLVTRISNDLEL

[4] = molecular target: T3, Protein kinase C epsilon type (Homo sapiens) (UniProt Q02156)
T3 sequence (whole entry): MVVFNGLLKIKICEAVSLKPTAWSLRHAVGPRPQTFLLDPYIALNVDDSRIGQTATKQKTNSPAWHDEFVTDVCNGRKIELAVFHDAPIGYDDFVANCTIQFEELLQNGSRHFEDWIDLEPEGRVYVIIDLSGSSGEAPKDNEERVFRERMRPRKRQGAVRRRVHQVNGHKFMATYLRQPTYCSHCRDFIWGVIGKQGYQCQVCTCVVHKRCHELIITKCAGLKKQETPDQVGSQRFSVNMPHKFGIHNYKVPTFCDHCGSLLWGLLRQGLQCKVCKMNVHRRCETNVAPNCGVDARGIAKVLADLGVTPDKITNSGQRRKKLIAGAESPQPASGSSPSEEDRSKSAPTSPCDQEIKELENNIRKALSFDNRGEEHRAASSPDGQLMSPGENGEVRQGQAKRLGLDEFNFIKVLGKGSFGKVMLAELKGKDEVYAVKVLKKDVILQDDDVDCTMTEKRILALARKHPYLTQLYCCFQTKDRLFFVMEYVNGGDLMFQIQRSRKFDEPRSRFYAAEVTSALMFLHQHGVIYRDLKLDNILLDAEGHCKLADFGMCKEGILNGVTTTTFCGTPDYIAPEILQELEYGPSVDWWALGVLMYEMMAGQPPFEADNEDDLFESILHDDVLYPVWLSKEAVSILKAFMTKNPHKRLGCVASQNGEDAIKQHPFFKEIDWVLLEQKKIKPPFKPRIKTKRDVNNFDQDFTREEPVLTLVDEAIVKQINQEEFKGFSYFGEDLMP

[5] = molecular target: T4, cAMP-dependent protein kinase catalytic subunit PRKX (Homo sapiens) (UniProt P51817)
T4 sequence (whole entry): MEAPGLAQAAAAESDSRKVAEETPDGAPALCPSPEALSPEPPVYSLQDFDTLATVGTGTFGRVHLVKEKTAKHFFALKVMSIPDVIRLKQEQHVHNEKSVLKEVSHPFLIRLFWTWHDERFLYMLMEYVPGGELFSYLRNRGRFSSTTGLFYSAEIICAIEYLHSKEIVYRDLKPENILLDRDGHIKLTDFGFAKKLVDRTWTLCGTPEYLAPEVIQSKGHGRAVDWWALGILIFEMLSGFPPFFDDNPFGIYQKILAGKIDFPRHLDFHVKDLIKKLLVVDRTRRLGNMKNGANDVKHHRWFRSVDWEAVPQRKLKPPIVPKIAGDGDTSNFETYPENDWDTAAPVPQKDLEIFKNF

[6] = molecular target: Dual specificity testis-specific protein kinase 1 (Homo sapiens) (UniProt Q15569)
Dual specificity testis-specific protein kinase 1 (Homo sapiens), sequence (Q15569 whole entry, looked up): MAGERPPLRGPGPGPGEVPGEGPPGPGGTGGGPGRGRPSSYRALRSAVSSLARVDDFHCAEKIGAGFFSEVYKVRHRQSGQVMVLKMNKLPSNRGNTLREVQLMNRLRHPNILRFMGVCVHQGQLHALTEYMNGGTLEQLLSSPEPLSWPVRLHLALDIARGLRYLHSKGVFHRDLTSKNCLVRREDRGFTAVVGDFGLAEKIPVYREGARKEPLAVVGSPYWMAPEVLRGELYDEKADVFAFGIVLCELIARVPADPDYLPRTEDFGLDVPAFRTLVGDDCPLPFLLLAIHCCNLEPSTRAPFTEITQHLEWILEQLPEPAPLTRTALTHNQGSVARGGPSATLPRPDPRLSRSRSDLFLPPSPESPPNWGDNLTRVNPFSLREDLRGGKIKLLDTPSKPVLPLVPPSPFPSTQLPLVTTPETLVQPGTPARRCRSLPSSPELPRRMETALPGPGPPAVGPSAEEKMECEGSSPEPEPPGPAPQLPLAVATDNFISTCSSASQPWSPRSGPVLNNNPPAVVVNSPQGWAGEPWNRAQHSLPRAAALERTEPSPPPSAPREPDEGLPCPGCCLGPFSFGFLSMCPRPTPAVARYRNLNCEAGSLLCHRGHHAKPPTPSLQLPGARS

## CCc1ccccc1C(=O)Nc1n[nH]c2c(C)c(F)c(C3C(C#N)=C(C)N(C)C(C)=C3C#N)cc12 [BAY-3827]
[1]
  residual activity: 33%
[2]
  residual activity: 100%
[3]
  residual activity: 51%
[4]
  residual activity: 19%
[5]
  residual activity: 88%
[6]
  residual activity: 96%

## CC1=C(C#N)C(c2ccc3c(c2)c(NC(=O)c2ccccc2C)nn3C)C(C#N)=C(C)N1 [BAY-974]
[1]
  residual activity: 95%
[2]
  residual activity: 100%
[3]
  residual activity: 94%
[4]
  residual activity: 85%
[5]
  residual activity: 76%
[6]
  residual activity: 96%

Source: ChEMBL document CHEMBL4507319 (2021)
